Measurements: US11939303B2, “Sulfamate derivatives of 4-(1-phenyl-1H-[1,2,3]triazol-4-yl)-phenol, derivatives of 4-(1-phenyl-1H-[1,2,3]triazol-4-yl)-phenol, their medical use and the method of obtaining 4-(1-phenyl-1H-[1,2,3]triazol-4-yl)-phenyl sulfamate derivatives” (POLITECHNIKA GDANSKA, priority 2018, dated 2024)

These molecules were tested against T1, STS steroid sulfatase enzyme isolated from a human placenta (Homo sapiens, UniProt P08842) (assay: STS steroid sulfatase enzymatic assay with nitrophenyl sulfate (NPS)). Conditions: NPS substrate, pH 7.25, 60 minutes, p-nitrophenol at 405 nm, read-out: IC50 (ability to inhibit steroid sulfatase activity).
T1 construct: human placenta was stripped from membranes and homogenized in ice-cold Tris-HCl buffer pH 7.4; from tissue; host or cells: human placenta
T1 sequence (P08842 22-583): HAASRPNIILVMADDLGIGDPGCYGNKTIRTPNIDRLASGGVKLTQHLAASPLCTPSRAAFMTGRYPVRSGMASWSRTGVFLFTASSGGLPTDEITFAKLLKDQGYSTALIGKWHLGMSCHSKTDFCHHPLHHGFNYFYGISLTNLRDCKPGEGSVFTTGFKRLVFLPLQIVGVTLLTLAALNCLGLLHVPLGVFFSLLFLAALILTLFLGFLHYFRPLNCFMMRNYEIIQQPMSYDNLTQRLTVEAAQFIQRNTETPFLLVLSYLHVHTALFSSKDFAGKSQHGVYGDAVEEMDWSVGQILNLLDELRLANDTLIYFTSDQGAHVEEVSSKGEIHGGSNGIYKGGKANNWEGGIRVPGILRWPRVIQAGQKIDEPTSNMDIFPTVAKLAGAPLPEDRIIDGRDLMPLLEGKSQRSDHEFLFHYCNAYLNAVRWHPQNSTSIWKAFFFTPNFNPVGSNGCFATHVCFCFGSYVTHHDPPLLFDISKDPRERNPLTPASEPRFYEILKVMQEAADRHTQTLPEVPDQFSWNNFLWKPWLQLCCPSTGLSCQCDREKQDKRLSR
Format: biochemical
Description: The medical and biological activity of the compounds defined the general formula 1, for use as active compounds—medicament—drugs and/or as STS steroid sulfatase inhibitors, diagnostic agent and biological use were evaluated using the STS steroid sulfatase enzyme isolated from a human placenta according to the following procedure: • human placenta was stripped from membranes and homogenized in ice-cold Tris-HCl buffer pH 7.4 containing 0.1% Triton X-100 and 0.02% NaN3. • the homogenate was alternately frozen and thawed a few times and then centrifuged at 100000 g for 60 min, • the supernatant was removed and the same procedure from homogenization to centrifugation was carried out 5 times, • finally, the enzyme was purified by three-step chromatography using columns: DEAE-cellulose, Con A-Sepharose and Bio-Gel A-1.5 and appropriate buffers. All steps were carried out at 4° C. The biological, diagnostics and medical activity of STS inhibitors, for the compounds defined by the general formula 1, were evaluated by analyzing the progress of the enzymatic reaction using nitrophenyl sulfate (NPS). The final volume of the reaction mixture was 120 μL (pH=7.25) and contained 0.8 μmol NPS, 40 μmol Tris HCl and the appropriate amount of enzyme. After 60 minutes of reaction time, 0.5 mL of 1M NaOH was added to the reaction mixture. Released p nitrophenol was determined using a spectrophotometer at 405 nm. In the final step, the IC50 parameter values (characterizing the ability of obtained compounds to inhibit steroid sulfatase activity) were determined. […] Therefore, the compounds of the general formula 1 have biological, medical and diagnostic activity, and have medical applications for use as a medicament a well as in diagnostics for use as a diagnostic agent. It has been confirmed that the new compounds with general formula 1, as one of the possible mechanisms of medical and biological action, show a strong STS inhibitory activity at low micromolar or nanomolar concentrations, which is sufficient for the compounds to act as drugs classified as steroid sulfatase inhibitors or as compounds for use as steroid sulfatase inhibitors in diagnostic tests, in vitro clinical trials and its use in biological sciences. In particular, the compounds of the general formula 1 are for use as medicaments—useful as drugs in cancer therapy and in particular in the therapy of hormone-dependent cancers of animals, in particular mammals, including humans.
For NS(=O)(=O)Oc1ccc(-c2cn(-c3cc(F)cc(F)c3)nn2)cc1 [4-[1-(3,5-difluoro-phenyl)-1H-[1,2,3]-triazol-4-yl]-phenyl sulfamate], the IC50 was 36 nM. NS(=O)(=O)Oc1ccc(-c2cn(-c3cc(C(F)(F)F)cc(C(F)(F)F)c3)nn2)cc1 [4-[1-(3,5-Bis-trifluoromethyl-phenyl)-1H-[1,2,3]triazol-4-yl]-phenyl sulfamate] gave an IC50 of 821 nM. NS(=O)(=O)Oc1ccc(-c2cn(-c3cccc(C(F)(F)F)c3)nn2)cc1 [4-[1-(3-trifluoromethyl-phenyl)-1H-[1,2,3]-triazol-4-yl]-phenyl sulfamate] was tested, and the IC50 was 180 nM. NS(=O)(=O)Oc1ccc(-c2cn(-c3ccc(OC(F)(F)F)cc3)nn2)cc1 [4-[1-(4-trifluoromethoxy-phenyl)-1H-[1,2,3]-triazol-4-yl]-phenyl sulfamate] was tested, and the IC50 was 240 nM.
